Tests used:
[1] = tested on: A549 non-small cell lung cancer; experiment: MTT assay; format: cell-based; conditions: Homo sapiens, 72 hr
Protocol: (§1) Human Bladder Cancer TSGH cells, Human hepatoblastoma HepG2 cells, Human colorectal adenocarcinoma HT-29 cells, human nasopharyngeal carcinoma KB cells, Human gastric adenocarcinoma AGS cells, Human breast carcinoma MCF-7 cells, lung carcinoma A549 cells, and Human prostate carcinoma PC-3 cells were used in the preliminary cytotoxicity assays of the benzenesulfonamide derivatives of the present invention, and the inhibition activity against the tumor cells was evaluated.
(§2) All cell lines were maintained in RPMI 1640 supplied with 10% fetal bovine serum and maintained in a humidified chamber at 37° C. containing 5% CO2. Then, all cell lines were treated with compounds for 72 hr and subsequently incubated with 0.4 mg/mL of MTT at 37° C. for 2 hr. The medium was removed, and DMSO was added to dissolve MTT precipitate. Cell proliferation was determined by measuring the optical density at 540 nm using a Thermomax microplate reader (Molecular Devices, Sunnyvale, Calif.), and the IC50 values of the benzenesulfonamide derivatives of the present invention were calculated.

[2] = tested on: Human Bladder Cancer TSGH cells; experiment: MTT assay; format: cell-based; conditions: 72 hr
Protocol: as §1, §2

[3] = tested on: Human breast carcinoma MCF-7 cells; experiment: MTT assay; format: cell-based; conditions: MCF7, 72 hr
Protocol: as §1, §2

[4] = tested on: Human colorectal adenocarcinoma HT-29 cells; experiment: MTT assay; format: cell-based; conditions: 72 hr
Protocol: as §1, §2

[5] = tested on: Human gastric adenocarcinoma AGS cells; experiment: MTT assay; format: cell-based; conditions: 72 hr
Protocol: as §1, §2

[6] = tested on: Human hepatoblastoma HepG2 cells; experiment: MTT assay; format: cell-based; conditions: 72 hr, read-out: IC50 HepaG2
Protocol: as §1, §2

[7] = tested on: Human prostate carcinoma PC-3 cells; experiment: MTT assay; format: cell-based; conditions: 72 hr
Protocol: as §1, §2

[8] = tested on: human nasopharyngeal carcinoma KB cells; experiment: MTT assay; format: cell-based
Protocol: as §1, §2

[9] = tested on: Human colorectal adenocarcinoma HT-29 cells; experiment: SRB assay; format: cell-based; conditions: 48 hr
Protocol: as §1
(§3) All cell lines were maintained in RPMI 1640 supplied with 10% fetal bovine serum into 96-well microtiter plates and maintained in a humidified chamber at 37° C. containing 5% CO2. After 24 hr, cell lines in partial wells were fixed in situ with 10% trichloroacetic acid (TCA) to represent a measurement at the time of drug addition (T0). Then, cell lines in other wells were incubated with the benzenesulfonamide derivatives of the present invention for an additional 48 hr, and fixed in situ with 10% TCA to represent a measurement at the time of stopping reaction (Tx). After rinsing the plates with PBS and air-drying, 0.4% sulforhodamine B solution (weight per volume in 1% acetic acid) was added to each well and the plates were incubated for 10 min at room temperature. Unbound sulforhodamine B was removed with 1% acetic acid and the plates were air-dried. Cells bound with sulforhodamine B was subsequently solubilized with 10 mM Tris base (Trizma; Sigma). Cell proliferation was determined by measuring the optical density at 515 nm using a Thermomax microplate reader (Molecular Devices, Sunnyvale, Calif.). The half-inhibition concention (GI50) of the benzenesulfonamide derivatives of the present invention was obtained from the detected optical density.

[10] = tested on: Human hepatoblastoma HepG2 cells; experiment: SRB assay; format: cell-based; conditions: 48 hr
Protocol: as §1, §3

[11] = tested on: Human prostate carcinoma PC-3 cells; experiment: SRB assay; format: cell-based
Protocol: as §1, §3

[12] = tested on: lung carcinoma A549 cells; experiment: SRB assay; format: cell-based; conditions: Homo sapiens, 48 hr
Protocol: as §1, §3

[13] = tested on: lung carcinoma A549 cells; experiment: In vitro migration assay (scratch); format: cell-based; conditions: 0, 0.5, or 10 μM, 18 hr, microscope images
Protocol: Lung carcinoma A549 cells (BCRC 60074; BCRC) were maintained in RPMI 1640 supplied with 10% fetal bovine serum and maintained in a humidified chamber at 37° C. containing 5% CO2. All the cell lines were developed for two generations every week.
In the in vitro migration assay, a scratch was mechanically made on the monolayer of cells to form a line-shaped scratch with cytological exfoliation. The scratch may lead the edge of the cell monolayer to close.
When the monolayered A549 cells were saturated, a scratch was made using a 200-μL tip directly on the monolayer of the A549 cells. Cells were then treated with GM119 with a concentration of 0, 0.5, or 10 μM. After incubation for 18 hr, all the migrations were tracked with a microscope.

[14] = tested on: murine mammary carcinoma cell line 4T1-Luc cells; experiment: 4T1-Luc cell survival, sulforhodamine B staining; format: cell-based
Protocol: The murine mammary carcinoma cell line 4T1-Luc cells stably expressing the firefly luciferase gene under the selection of G418 was cultured in RPMI containing 10% fetal calf serum. The cells were maintained at 37° C. with 5% CO2 in air and subcultured twice weekly.
Each well of 96-well plates was seeded with 2,500 or 5,000 tumor cells, and the tumor cells were incubated in medium with 10% fetal bovine serum or without serum. The tumor cells were treated with 0, 0.01, 0.1, 1, or 10 μM of GM119 for 48 hr. Then, the tumor cells were fixed with 10% of trichloroacetic acid, washed with water, stained with sulforhodamine B. Then, the sample was washed with 1% of acetic acid, and Tris buffer was added into the sample. The absorption of the sample was determined at 515 nm with a Thermomax microplate reader, and repeated for 4 times. The absorption of the cells without drug treatment served as 100% survival, and the survival was calculated and represented by average±standard deviation %.

4T1-Luc cells = experiment: In vivo evaluation, short-time treatment, mice implanted with 4T1-Luc cells
Protocol: GM119 (25 mg/kg) was applied to a mouse implanted with 4T1-Luc cells for a short time, and then Taxol (10 mg/kg) was applied thereto to observe the effect of GM119 on the 4T1-Luc cells.
A suspension of 4T1-Luc cells in matrigel was injected into the breast adipocyte to obtain mice implanted with luciferase tumor cells. […] When the size of the tumor cells was achieved to 200-500 mm^3, the mice were divided into 2 groups, and the number of the mice in each group is ≧5. Then, 0 or 25 mg/kg of GM119 was abdominal-injected into the mice for 5 days, wherein GM119 was dissolved in cremophor, and the volume of injection to each mouse is 50 μl. Then, 0 or 10 mg/kg of Taxol was abdominal-injected into the mice for every 2 days until death of the mice. The weight and the number of the mice were recorded every day to analyze the change on the weight and the survival time of the mice. After the drugs were applied to the mice, the size of the tumor cells in the mice was evaluated with bioluminescence every two days.

`COc1ccc(S(=O)(=O)Nc2cccc3c2[nH]c2c(C)ccc(C)c23)cc1` [Compound 6c, N-(5,8-Dimethyl-9H-carbazol-1-yl)-4-methoxybenzenesulfonamide] gave an IC50 [1] of 1120 nM, an IC50 [2] of 500 nM and an IC50 [3] of 240 nM. It also gave an IC50 [4] of 400 nM, an IC50 [5] of 1400 nM and an IC50 [6] of 400 nM. For the same compound, the IC50 [7] was 240 nM, the IC50 ([8]; Homo sapiens, KB, MTT assay, 72 hr) was 800 nM and the “inhibitory activity against KB cells compared with E7070” value ([8]; own MTT value vs literature value) was “has higher inhibitory activity against KB cells than E7070”. For the same compound, the GI50 [9] was 320 nM, the GI50 [10] was 70 nM and the GI50 ([11]; 48 hr) was 610 nM. For the same compound, the GI50 ([11]; Homo sapiens, PC-3, 48 h) was 500 nM, the IC50 ([11]; Homo sapiens, PC-3, 48 hr) was 1100 nM and the GI50 [12] was 280 nM. The “inhibition on the migration of the A549 cells” value [13] was “the inhibition on the migration of the A549 cells was greater as the concentration of the GM119 was increased”, the “growth of the 4T1 cells” value ([14]; 0.01 μM, 48 hr, medium with or without serum, FIG. 1) was “the growth of the 4T1 cells can be inhibited” and the “inhibition of the 4T1 cells” value ([14]; 10 μM, 48 hr, FIG. 1) was “the inhibition of the 4T1 cells is apparent”. For the same compound, the “killing of 4T1 cells (FIG. 1 legend)” value ([14]; in vitro assay) was “kills the murine mammary carcinoma 4T1 cell”, the “survival of the mice” value (4T1-Luc cells; short time: GM119 25 mg/kg abdominal-injected for 5 days, then Taxol 10 mg/kg every 2 days, FIG. 2) was “the survival of the mice can be greatly increased” and the “growth of the tumor cells (bioluminescence)” value (4T1-Luc cells; short-time treatment, GM119 25 mg/kg, Taxol 10 mg/kg) was “the growth of the tumor cells can be inhibited”.

Reference: patent US8173693B2, “Benzenesulfonamide derivatives and pharmaceutical composition thereof” (Purzer Pharmaceutical Co., Ltd., priority 2010, dated 2012)
